Laboratory results reported in ChEMBL document CHEMBL2073988, “Secretory transport of methylprednisolone possibly mediated by P-glycoprotein in Caco-2 cells” (Biol Pharm Bull, 2002).

Molecular target: ATP-dependent translocase ABCB1 (Homo sapiens, UniProt P08183)
Experiment: TP_TRANSPORTER: transepithelial transport (basal to apical), inhibited by Verapamil in Caco-2 cells
Format: functional, cell-based

Chain of ATP-dependent translocase ABCB1 (P08183 whole entry): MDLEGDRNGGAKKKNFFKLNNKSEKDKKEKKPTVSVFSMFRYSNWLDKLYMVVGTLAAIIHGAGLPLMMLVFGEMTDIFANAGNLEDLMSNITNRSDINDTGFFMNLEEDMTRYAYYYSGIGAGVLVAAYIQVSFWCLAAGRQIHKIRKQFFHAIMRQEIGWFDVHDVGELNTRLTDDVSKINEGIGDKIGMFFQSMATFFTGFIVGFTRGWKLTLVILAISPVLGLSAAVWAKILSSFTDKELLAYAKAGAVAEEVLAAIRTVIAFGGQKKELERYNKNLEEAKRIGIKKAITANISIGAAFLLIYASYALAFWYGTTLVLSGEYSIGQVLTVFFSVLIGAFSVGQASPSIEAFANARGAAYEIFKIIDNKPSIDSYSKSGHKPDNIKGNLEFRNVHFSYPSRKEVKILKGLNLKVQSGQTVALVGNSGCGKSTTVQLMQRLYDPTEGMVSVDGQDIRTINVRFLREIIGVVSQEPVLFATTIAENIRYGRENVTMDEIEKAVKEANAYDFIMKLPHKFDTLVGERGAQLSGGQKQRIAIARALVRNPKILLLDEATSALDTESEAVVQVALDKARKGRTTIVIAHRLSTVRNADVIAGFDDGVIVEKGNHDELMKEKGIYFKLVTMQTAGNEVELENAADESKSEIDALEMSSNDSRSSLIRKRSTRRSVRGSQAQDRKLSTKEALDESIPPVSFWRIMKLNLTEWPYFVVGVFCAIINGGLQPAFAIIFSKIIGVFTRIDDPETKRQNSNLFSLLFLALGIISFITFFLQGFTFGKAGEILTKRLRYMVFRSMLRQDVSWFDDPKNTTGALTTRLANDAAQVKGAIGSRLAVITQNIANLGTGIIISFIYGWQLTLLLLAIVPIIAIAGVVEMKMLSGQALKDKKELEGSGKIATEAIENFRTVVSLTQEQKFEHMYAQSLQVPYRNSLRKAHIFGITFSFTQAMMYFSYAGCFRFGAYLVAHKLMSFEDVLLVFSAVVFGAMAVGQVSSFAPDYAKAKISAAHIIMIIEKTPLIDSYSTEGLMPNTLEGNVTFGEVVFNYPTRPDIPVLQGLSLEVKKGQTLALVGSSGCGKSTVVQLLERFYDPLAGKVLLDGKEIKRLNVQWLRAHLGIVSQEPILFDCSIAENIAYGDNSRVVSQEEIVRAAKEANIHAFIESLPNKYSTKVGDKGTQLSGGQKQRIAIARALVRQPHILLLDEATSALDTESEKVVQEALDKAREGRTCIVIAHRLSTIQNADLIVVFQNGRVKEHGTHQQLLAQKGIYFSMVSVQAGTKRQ

SMILES: C[C@H]1C[C@@H]2[C@H]([C@@H](O)C[C@@]3(C)[C@H]2CC[C@]3(O)C(=O)CO)[C@@]2(C)C=CC(=O)C=C12 [METHYLPREDNISOLONE]
- Activity: substrate [+]
